Test results published in patent US3953456A, “Carbostyril derivatives and process for preparing the same” (Otsuka Pharmaceutical Co., Ltd., priority 1972, dated 1976).
Like-named read-outs stand apart in the source and are kept apart here.

Assays:
[1] = Acute toxicity in rat (LD50, 50% lethal dose); conditions: in vivo, rat (Wister strain)
Procedure: Also, the acute toxicity in rat (Wister strain) was determined in a standard manner with respect to representative compounds of this invention.

[2] = system: isoprenaline; test: Antagonistic activity against isoprenaline (β-blockers screening method) in anesthesized dogs: % inhibition of pulse increase and blood pressure reduction; assay type: in vivo, male mongrel adult dogs; conditions: isoprenaline 0.3 γ/Kg after 5 minutes; for Antagonistic Activity Against Isoprenaline (% Inhibition), Blood Pressure: pressure reduction by isoprenaline alone = 100%; for Antagonistic Activity Against Isoprenaline (% Inhibition), Pulse: pulse increase by isoprenaline alone = 100%
Procedure: The antagonistic activity of the compounds of this invention against isoprenaline was determined using the β-blockers screening method (C. E. Powell, I. H. Slater : J. Pharmac., 122, 480 (1958 )).
Male mongrel adult dogs, weighing 13 to 20 Kg were anesthesized with 30 mg/Kg of body weight of pentabarbital sodium administered intravenously. Each of the test compounds was then administered to the anesthesized dog at a dosage level of 30γ or 100γ/Kg of body weight from the femoral vein and after 5 minutes isoprenaline was administered to the dog through the femoral vein at a dosage level of 0.3 γ/Kg of body weight. the blood pressure and the pulse (H.R.) were then recorded on a polygraph through a pressure transducer and a tachometer operated by the R wave of the electrocardiograph, respectively, to determine % inhibitory activity of the test compound against the pulse increase and the pressure reduction induced by isoprenaline.
*The pulse increase and the pressure reduction induced by the
administration of isoprenaline alone are referred to as 100%.

SMILES	LD50 ([1]; iv, i.v., read-out: LD50 i.v.) [mg/kg]	LD50 ([1]; po, p.o., read-out: LD50 p.o.) [mg/kg]	Antagonistic Activity Against Isoprenaline (% Inhibition), Blood Pressure ([2]; 100 γ/Kg from the femoral vein) [%]	Antagonistic Activity Against Isoprenaline (% Inhibition), Pulse ([2]; 100 γ/Kg from the femoral vein) [%]	Antagonistic Activity Against Isoprenaline (% Inhibition), Blood Pressure ([2]; 30 γ/Kg from the femoral vein) [%]	Antagonistic Activity Against Isoprenaline (% Inhibition), Pulse ([2]; 30 γ/Kg from the femoral vein) [%]
CCC(C)NCC(O)COc1cccc2ccc(=O)[nH]c12 (centres unmarked) [8-(2-hydroxy-3-sec-butylamino)propoxycarbostyril]	143	1900	51.8	42.1		
CC(C)(C)NCC(O)COc1cccc2ccc(=O)[nH]c12 (centres unmarked) [8-(2-hydroxy-3-tert-butylamino)propoxycarbostyril]	148	1800	78.3	72.6		
CC(C)NCC(O)COc1cccc2ccc(=O)[nH]c12 (centres unmarked) [8-(2-hydroxy-3-isopropylamino)propoxycarbostyril]	178	2000	66.2	57.4		
CC(C)(C)NCC(O)COc1cccc2[nH]c(=O)ccc12 (centres unmarked) [5-(2-hydroxy-3-tert-butylamino)propoxycarbostyril]	136	1800			97.9	96.1
CC(C)NCC(O)COc1cccc2[nH]c(=O)ccc12 (centres unmarked) [5-(2-hydroxy-3-isopropylamino)propoxycarbostyril]	162	2000			89.2	87.6
